Measured values taken from patent US20230085307A1, “PYRIDAZINONE COMPOUND AND HERBICIDE” (NISSAN CHEMICAL CORPORATION, priority 2019, published 2023).

Legend:
barnyard grass [1] = assay: Test Example 4: herbicidal effect by soil treatment (Table 19, symbol H); type: in vivo, barnyard grass (Echinochloa crus-galli)
Procedure, shortened: (§1)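 Applied as a water-diluted emulsion, the compound was sprayed onto soil covering newly sown seeds. Evaluation came three weeks after application, in a greenhouse held at 25° C. to 30° C.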

Italian ryegrass [2] = assay: Test Example 5: herbicidal effect by foliage application, plastic box (Table 20, symbol K); type: in vivo, Italian ryegrass (Lolium multiflorum); settings: foliage application; for effect on Italian ryegrass (K): 320 g/ha, 3 weeks after application
Procedure, shortened: (§2)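 Sow seeds spot-wise in sterilized diluvial soil; cover with ~1.5 cm soil. Grow 14 days in greenhouse, 25° C. to 30° C. Spray foliage with emulsion diluted to predetermined amount. Rate effect after 3 weeks.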

barnyard grass [3] = assay: Test Example 5: herbicidal effect by foliage application, plastic box (Table 20, symbol H); type: in vivo, barnyard grass (Echinochloa crus-galli); settings: foliage application; for effect on barnyard grass (H): 320 g/ha, 3 weeks after application
Procedure, shortened: as §2

late watergrass = assay: Test Example 2: herbicidal activity, application during weed generation under submerged conditions (Table 17, symbol A); type: in vivo, late watergrass (Echinochloa oryzicola); settings: AAH 320 g/ha; application during weed generation, submerged conditions
Procedure, shortened: (§3)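 In this pot test, flooded alluvial soil (water depth 4 cm) holds all three species sown as a mixture. Once seedlings have one to two leaves, the compound's emulsion, thinned with water to the intended dose, is poured on the water; grading follows after three weeks on the earlier criteria.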

green foxtail = assay: Test Example 4: herbicidal effect by soil treatment (Table 19, symbol G); type: in vivo, green foxtail (Setaria viridis)
Procedure, shortened: as §1

wild oat [4] = assay: Test Example 4: herbicidal effect by soil treatment (Table 19, symbol I); type: in vivo, wild oat (Avena fatua)
Procedure, shortened: as §1

chickweed = assay: Test Example 4: herbicidal effect by soil treatment (Table 19, symbol P); type: in vivo, common chickweed (Stellaria media)
Procedure, shortened: as §1

rice flat sedge = assay: Test Example 3: herbicidal effect by foliage application, Wagner pot (Table 18, symbol E); type: in vivo, rice flat sedge (Cyperus iria); settings: 320 g/ha
Procedure, shortened: (§4)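 Plants were sown in alluvial soil held under 0.1–0.5 cm standing water and grown 14 days in a greenhouse at 25–30 °C. An emulsifiable formulation, water-diluted to the set dose, was then sprayed onto the foliage, and effects were scored three weeks later using previously defined criteria.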

redroot pigweed [5] = assay: Test Example 4: herbicidal effect by soil treatment (Table 19, symbol N); type: in vivo, redroot pigweed (Amaranthus retroflexus)
Procedure, shortened: as §1

Japanese bulrush = assay: Test Example 2: herbicidal activity, application during weed generation under submerged conditions (Table 17, symbol B); type: in vivo, Japanese bulrush (Schoenoplectus juncoides); settings: AAH 320 g/ha; application during weed generation, submerged conditions
Procedure, shortened: as §3

blackgrass = assay: Test Example 5: herbicidal effect by foliage application, plastic box (Table 20, symbol J); type: in vivo, blackgrass (Alopecurus myosuroides); settings: foliage application; for effect on blackgrass (J): 320 g/ha, 3 weeks after application
Procedure, shortened: as §2

windgrass = assay: Test Example 5: herbicidal effect by foliage application, plastic box (Table 20, symbol L); type: in vivo, windgrass (Apera spica-venti); settings: foliage application; for effect on windgrass (L): 320 g/ha, 3 weeks after application
Procedure, shortened: as §2

persian speedwell = assay: Test Example 5: herbicidal effect by foliage application, plastic box (Table 20, symbol R); type: in vivo, Persian speedwell (Veronica persica); settings: foliage application; for effect on persian speedwell (R): 320 g/ha, 3 weeks after application
Procedure, shortened: as §2

lambsquarters [6] = assay: Test Example 4: herbicidal effect by soil treatment (Table 19, symbol O); type: in vivo, lambsquarters (Chenopodium album)
Procedure, shortened: as §1

wild oat [7] = assay: Test Example 5: herbicidal effect by foliage application, plastic box (Table 20, symbol I); type: in vivo, wild oat (Avena fatua); settings: foliage application; for effect on wild oat (I): 320 g/ha, 3 weeks after application
Procedure, shortened: as §2

Italian ryegrass [8] = assay: Test Example 4: herbicidal effect by soil treatment (Table 19, symbol K); type: in vivo, Italian ryegrass (Lolium multiflorum)
Procedure, shortened: as §1

lambsquarters [9] = assay: Test Example 5: herbicidal effect by foliage application, plastic box (Table 20, symbol O); type: in vivo, lambsquarters (Chenopodium album); settings: foliage application; for effect on lambsquarters (O): 320 g/ha, 3 weeks after application
Procedure, shortened: as §2

southern crabgrass [10] = assay: Test Example 4: herbicidal effect by soil treatment (Table 19, symbol F); type: in vivo, southern crabgrass (Digitaria ciliaris)
Procedure, shortened: as §1

southern crabgrass [11] = assay: Test Example 5: herbicidal effect by foliage application, plastic box (Table 20, symbol F); type: in vivo, southern crabgrass (Digitaria ciliaris); settings: foliage application; for effect on southern crabgrass (F): 320 g/ha, 3 weeks after application
Procedure, shortened: as §2

barnyard grass [12] = assay: Test Example 3: herbicidal effect by foliage application, Wagner pot (Table 18, symbol H); type: in vivo, barnyard grass (Echinochloa crus-galli); settings: 320 g/ha
Procedure, shortened: as §4

redroot pigweed [13] = assay: Test Example 5: herbicidal effect by foliage application, plastic box (Table 20, symbol N); type: in vivo, redroot pigweed (Amaranthus retroflexus); settings: foliage application, AAH 320 g/ha, three weeks after application
Procedure, shortened: as §2

velvetleaf = assay: Test Example 4: herbicidal effect by soil treatment (Table 19, symbol M); type: in vivo, velvetleaf (Abutilon theophrasti); settings: 320 g/ha
Procedure, shortened: as §1

[14] = amount of applied herbicide 320 g/ha
[15] = AAH 320 g/ha, three weeks after application

Compound	herbicidal effect rating, A: late watergrass (late watergrass)	herbicidal effect on E (rice flat sedge), rating 0-5 (rice flat sedge)	herbicidal effect rating, B: Japanese bulrush (Japanese bulrush)	herbicidal effect on H (barnyard grass), rating 0-5 (barnyard grass [12])	herbicidal effect rating, H: barnyard grass (barnyard grass [1]; 320 g/ha)	effect on Italian ryegrass (K) (Italian ryegrass [2])	effect on barnyard grass (H) (barnyard grass [3])	herbicidal effect rating, G: green foxtail (green foxtail; 320 g/ha)	herbicidal effect rating, I: wild oat (wild oat [4]; 320 g/ha)	herbicidal effect rating, P: chickweed (chickweed; 320 g/ha)	herbicidal effect rating, N: redroot pigweed (redroot pigweed [5]; 320 g/ha)	effect on blackgrass (J) (blackgrass)	effect on windgrass (L) (windgrass)	effect on persian speedwell (R) (persian speedwell)	herbicidal effect rating, O: lambsquarters (lambsquarters [6]; 320 g/ha)	effect on wild oat (I) (wild oat [7])	herbicidal effect rating, K: Italian ryegrass (Italian ryegrass [8]; 320 g/ha)	herbicidal effect rating, M: velvetleaf (velvetleaf)	effect on lambsquarters (O) (lambsquarters [9])	herbicidal effect rating, F: southern crabgrass (southern crabgrass [10]; 320 g/ha)	also measured
Cc1nn(C)c(=O)c(-c2c(-c3cnc4ccccc4c3)sc3ccccc23)c1O [1-108]	0 (Herbicidal rate of 5% or less (almost no effect))	5 (Herbicidal rate of 90% or more (almost completely withered))	2 (Herbicidal rate of 20% or more and less than 40%)	0 (Herbicidal rate of 5% or less (almost no effect))	–	–	–	–	–	–	–	–	–	–	–	–	–	–	–	–	herbicidal effect rating, H: barnyard grass (barnyard grass [1]; [14]): 0 (Herbicidal rate of 5% or less (almost no effect)); K: Italian ryegrass, herbicidal effect (Italian ryegrass [2]; [15]): 0 (Herbicidal rate of 5% or less (almost no effect)); H: barnyard grass, herbicidal effect (barnyard grass [3]; [15]): 0 (Herbicidal rate of 5% or less (almost no effect)); herbicidal effect rating, G: green foxtail (green foxtail; [14]): 0 (Herbicidal rate of 5% or less (almost no effect)); herbicidal effect rating, I: wild oat (wild oat [4]; [14]): 0 (Herbicidal rate of 5% or less (almost no effect)); herbicidal effect rating, P: chickweed (chickweed; [14]): 0 (Herbicidal rate of 5% or less (almost no effect)); herbicidal effect rating, N: redroot pigweed (redroot pigweed [5]; [14]): 0 (Herbicidal rate of 5% or less (almost no effect)); J: blackgrass, herbicidal effect (blackgrass; [15]): 0 (Herbicidal rate of 5% or less (almost no effect)); L: windgrass, herbicidal effect (windgrass; [15]): 0 (Herbicidal rate of 5% or less (almost no effect)); R: persian speedwell, herbicidal effect (persian speedwell; [15]): 0 (Herbicidal rate of 5% or less (almost no effect)); herbicidal effect rating, O: lambsquarters (lambsquarters [6]; [14]): 3 (Herbicidal rate of 40% or more and less than 70%); I: wild oat, herbicidal effect (wild oat [7]; [15]): 0 (Herbicidal rate of 5% or less (almost no effect)); herbicidal effect rating, K: Italian ryegrass (Italian ryegrass [8]; [14]): 0 (Herbicidal rate of 5% or less (almost no effect)); O: lambsquarters, herbicidal effect (lambsquarters [9]; [15]): 2 (Herbicidal rate of 20% or more and less than 40%); herbicidal effect rating, F: southern crabgrass (southern crabgrass [10]; [14]): 0 (Herbicidal rate of 5% or less (almost no effect)); F: southern crabgrass, herbicidal effect (southern crabgrass [11]; [15]): 0 (Herbicidal rate of 5% or less (almost no effect)); N: redroot pigweed, herbicidal effect (redroot pigweed [13]): 0 (Herbicidal rate of 5% or less (almost no effect))
CCCC(=O)Oc1c(C)nn(C)c(=O)c1-c1c(-c2ccc(OC(F)(F)F)cc2)sc2ccc(F)cc12 [2-046]	1 (Herbicidal rate of 5% or more and less than 20%)	5 (Herbicidal rate of 90% or more (almost completely withered))	3 (Herbicidal rate of 40% or more and less than 70%)	5 (Herbicidal rate of 90% or more (almost completely withered))	3 (Herbicidal rate of 40% or more and less than 70%)	4 (Herbicidal rate of 70% or more and less than 90%)	5 (Herbicidal rate of 90% or more (almost completely withered))	4 (Herbicidal rate of 70% or more and less than 90%)	0 (Herbicidal rate of 5% or less (almost no effect))	5 (Herbicidal rate of 90% or more (almost completely withered))	4 (Herbicidal rate of 70% or more and less than 90%)	0 (Herbicidal rate of 5% or less (almost no effect))	0 (Herbicidal rate of 5% or less (almost no effect))	5 (Herbicidal rate of 90% or more (almost completely withered))	5 (Herbicidal rate of 90% or more (almost completely withered))	0 (Herbicidal rate of 5% or less (almost no effect))	3 (Herbicidal rate of 40% or more and less than 70%)	3 (Herbicidal rate of 40% or more and less than 70%)	5 (Herbicidal rate of 90% or more (almost completely withered))	2 (Herbicidal rate of 20% or more and less than 40%)	effect on southern crabgrass (F) (southern crabgrass [11]): 0 (Herbicidal rate of 5% or less (almost no effect))
Cc1nn(C)c(=O)c(-c2c(-c3ccc(OCCF)cc3)sc3ccc(F)cc23)c1O [2-047]	0 (Herbicidal rate of 5% or less (almost no effect))	5 (Herbicidal rate of 90% or more (almost completely withered))	3 (Herbicidal rate of 40% or more and less than 70%)	5 (Herbicidal rate of 90% or more (almost completely withered))	5 (Herbicidal rate of 90% or more (almost completely withered))	4 (Herbicidal rate of 70% or more and less than 90%)	5 (Herbicidal rate of 90% or more (almost completely withered))	5 (Herbicidal rate of 90% or more (almost completely withered))	2 (Herbicidal rate of 20% or more and less than 40%)	4 (Herbicidal rate of 70% or more and less than 90%)	5 (Herbicidal rate of 90% or more (almost completely withered))	4 (Herbicidal rate of 70% or more and less than 90%)	4 (Herbicidal rate of 70% or more and less than 90%)	5 (Herbicidal rate of 90% or more (almost completely withered))	5 (Herbicidal rate of 90% or more (almost completely withered))	3 (Herbicidal rate of 40% or more and less than 70%)	1 (Herbicidal rate of 5% or more and less than 20%)	5 (Herbicidal rate of 90% or more (almost completely withered))	4 (Herbicidal rate of 70% or more and less than 90%)	5 (Herbicidal rate of 90% or more (almost completely withered))	effect on southern crabgrass (F) (southern crabgrass [11]): 5 (Herbicidal rate of 90% or more (almost completely withered))
